In test [1] the test system is Staphylococcus aureus. The test is described as follows: Antimicrobial activity against Staphylococcus aureus Sau1091-5 at 100 ug/disk. The class given is functional. To be noted: read-out: IZ.
In test [2] the test system is Staphylococcus. Briefly: Antimicrobial activity against Staphylococcus albus Sal1091-4 at […]. It counts as functional, organism-based.
Test [3] concerns Bacillus subtilis. The test is described as follows: Antimicrobial activity against Bacillus subtilis Bs1091-1 at 100 ug/disk. The class given is functional. To be noted: read-out: IZ.
Test [4] concerns Staphylococcus. Briefly: Antimicrobial activity against Staphylococcus albus Sal1091-4 at 100 ug/disk. To be noted: read-out: IZ. The class given is functional.

As for `O=C1c2ccccc2NC1(c1c[nH]c2ccccc12)c1c[nH]c2ccccc12`, the zone of inhibition at 100 µg/disc in test [1] amounted to 11 mm.
Consider GENTAMICIN, for which the inhibition zone (IZ) in test [2] turned out to be 14 mm.
For `CC(c1c[nH]c2ccccc12)c1c[nH]c2ccccc12` [VIBRINDOLE A], the zone of inhibition at 100 µg/disc in test [1] is 11 mm; in test [3] it was 7 mm; in test [4], 11 mm.

These data come from ChEMBL document CHEMBL1148088, “Vibrindole A, a metabolite of the marine bacterium, Vibrio parahaemolyticus, isolated from the toxic mucus of the boxfish Ostracion cubicus” (1994).
